A melting point compilation (Tetko et al.; mined from patent text by program, amines drawn as free bases though some values may be those of a salt)

melting point [°C] | Compound
66 | CCOC(=O)C1COc2cc(OC(C)=O)ccc2O1 (stereo not drawn)
114 to 115 | CC(C)NC(=O)C1OC1c1ccccc1 (stereo not drawn)
213 to 215 | Cc1nc(-c2cccc(C(=O)c3ccccc3)c2)sc1C(=O)O
216 | CC(=O)Nc1ccc(Cl)cc1NC(C)=O
84 to 86 | CCCC(C(=O)NC)n1cc(C)c(-c2ccccc2)n1 (stereo not drawn)
135 to 137 | CCN1C(=O)OC(=Cc2ccc3c(c2)OCO3)C1=O
198 to 200 | O=C(Cl)c1ccc(S(=O)(=O)NC(=O)c2ccccc2Cl)cc1
189 to 190 | Cc1nc(-n2cnn(Cc3ccc(F)cc3)c2=O)sc1C(=O)NCc1nccs1
67 to 68 | COC(=O)c1ccc(CCSC(C)=O)s1
226 to 228 | CC(=O)NCC1CN(c2ccc(N3CCN(c4nc5cc(F)ccc5o4)CC3)c(F)c2)C(=O)O1 (stereo not drawn)
121 to 122 | N#Cc1c(Cl)cccc1C(Cl)(Cl)Cl
66 to 68 | COC(=O)C(CC1CCCC1)c1ccc(S(C)(=O)=O)c(F)c1 (stereo not drawn)
92 to 94 | CCCS(=O)c1cc(OCCCS(=O)Cc2ccccc2)ccc1C (stereo not drawn)
141 to 142 | Cc1cc2ccccc2nc1C(=O)O
140 to 141 | COC(=O)Nc1cc(O)c(Cl)cc1F
219 to 220 | C[C@H]1C(=O)N2[C@H](c3ccc4c(c3)OCO4)c3[nH]c4ccccc4c3C[C@@H]2C(=O)N1C
225 to 228 | Cc1nc(-n2cccc(O)c2=O)sc1C(=O)NCc1ccccc1
173 to 176 | ON=C1CCC(C2CCCCC2)=C1c1ccc(F)cc1
82 to 85 | O=S(=O)(Cl)c1ccc(-c2ccc(F)cc2)s1
160 to 161 | O=C(OC(c1ccccc1)c1ccccc1)C1=CSC2C(=Cc3cn4c(n3)SCC4)C(=O)N12 (stereo not drawn)
210 to 212 | c1ccc2c(c1)-c1ccccc1C2CC1c2ccccc2-c2ccccc21
97 | c1ccc2c(c1)COc1ccccc1-2
137 to 138 | CCOC(=O)COC1CCN(C(=O)[C@H](C)OCc2ccc(C(N)=NO)cc2)CC1
113 to 114 | CC(C)(O)CC(=O)c1cc(C(C)(C)C)c(O)c(C(C)(C)C)c1

melting point [°C] | Compound
115 to 117 | Cc1cccc(C(=O)C=CC(=O)O)c1
65 to 66 | CCCCCCCCCCCCCC(=O)OCC1(CO)CCC(=O)O1 (stereo not drawn)
145 to 147 | CC(C)(C)OC(=O)Nc1sc(-c2cccnc2)nc1C(F)(F)F
82 to 83 | C=CCN(C(=O)OCc1ccccc1)c1cc(F)c(-c2ccncc2)c(F)c1
198 to 220 | COc1cc2c(cc1-c1ccoc1)C(=CNc1ccc(N3CCN(C)CC3)cc1)C(=O)NC2=O
246 | CC(CO)(CO)NS(=O)(=O)c1cccc(NC(=O)c2cnn3c(C(F)F)cc(-c4ccc(C(F)(F)F)cc4)nc23)c1
260 to 263 | CC1(C)CS(=O)(=O)CC(C)(C)c2[nH]c(-c3ccccc3)nc21
> 300 | COC(=O)NNC(=O)Nc1cccc2c1C(=O)c1c-2n[nH]c1-c1ccc(OC)cc1
162 to 163 | S=C(NCc1cccnc1)NC(Cc1cccc2ccccc12)=Nc1ccccc1
194 to 196 | O=c1c(OCc2nnn[nH]2)coc2ccccc12
205 | Cc1ccc(S(=O)(=O)OCC2CCc3ccc4[nH]c(=O)[nH]c4c3O2)cc1 (stereo not drawn)
155 | COC(=O)NNC(=O)c1ccc([N+](=O)[O-])o1
202 to 204 | CCc1nc2c(N)nc3ccccc3c2n1CC#Cc1cccc(C(F)(F)F)c1
259 | NS(=O)(=O)c1ccc(-c2noc(-c3cnn4c(C(F)F)cc(-c5ccc(Cl)cc5)nc34)n2)s1
169 to 170 | C=C1NC(=O)OC12CCN(Cc1ccccc1)CC2
149 to 150 | CS(=O)CCNC(=O)c1cccc(-c2ccc3c(c2)C(Oc2ccc(Cl)cc2Cl)CC3)c1 (stereo not drawn)
250 | O=C(CC1=C(n2nc(-c3c(-c4ccccc4)nn4ccccc34)ccc2=O)CCCC1)N1CCN(C(c2ccccc2)(c2ccccc2)c2ccccc2)CC1
199 to 201 | CN(C)S(=O)(=O)c1ccc2c3c(cccc13)C(NCCCn1ccnc1)=N2
237 to 240 | CN1C(=O)Cc2cc(C(=O)[C@H]3C[C@H]3C(=O)O)ccc21 (relative stereo)
243 to 244 | COc1cc2ncnc(N3CCCN(C(=O)Nc4ccc([N+](=O)[O-])cc4)CC3)c2cc1OC
163 to 164 | Cc1nccn1-c1ccc(COc2cccc(C3(C(N)=O)CCCC3)c2)cc1
182 to 183 | Cc1sc(C(N)=O)c2c1-c1nn(Cc3ccccc3)cc1CC2
235 | CC(C)(C)c1cc(C=[N+]([O-])C(C)(C)C)c(O)c(C(C)(C)C)c1
247 to 248 | NC(=O)C1CCc2[nH]c3ccc(Cl)cc3c2C1 (stereo not drawn)

melting point [°C] | Compound
159 | CCCCCC(=O)OCC(=O)C1C(C)CC2C3=C(C(=O)CC21C)C1(C)C=CC(=O)C=C1C(F)C3 (stereo not drawn)
55 to 56 | COCOc1cc(OC)ccc1C=O
240 to 243 | CC(C)NCC1CCN(c2nc3c(cc2F)c(=O)c(C(=O)O)cn3C2CC2)C1 (stereo not drawn)
108 | CC[C@@]1(C=O)CCCN(CCc2c[nH]c3ccc(OC)cc23)C1=O
163 to 164 | COC(=O)C=Cc1cn(Cc2ccc(C(=O)OC(C)(C)C)cc2OC)c2cc(C(=O)NCC3CCCC3)ccc12
129 to 135 | CN(C)CC(=O)N(C)c1ccc(OCC(=O)N[C@@H](CC(N)=O)C(=O)N[C@@H](Cc2ccccc2)[C@H](O)C(=O)N2CCC[C@H]2C(=O)NC(C)(C)C)cc1
95.5 to 97 | CCCCc1ncc(C=O)n1Cc1ccc(C(=O)OC)c2ccccc12
184 to 185 | N#CCOc1ccccc1S(N)(=O)=O
105 to 106 | c1ccc(CN2CCN(c3ccnc4ccccc34)CC2)cc1
161 to 162 | CC(C)CC1(C(CCN2C(=O)c3ccc([N+](=O)[O-])cc3C2=O)C(=O)NO)CCN(CCc2ccccc2)C1=O (stereo not drawn)
132 to 133 | Cc1nc(C)c(C(C)(O)c2ccsc2)o1 (stereo not drawn)
50 | c1ccc(OCCSCc2nnc(-c3ccc(OCCCN4CCCCCC4)cc3)o2)cc1
142 to 144 | COc1ccc(C(=O)Nc2ccccc2)cc1NCc1ccccc1F
202 to 204 | CN1Cc2c(-c3noc(CN)n3)ncn2-c2ccsc2C1=O
222 to 224 | CCc1nc(/C=C/c2cn(-c3ccccc3)nc2O)cs1
124 | COCCOCN1C(C)=C(C(=O)O)[C@@H](c2cccc([N+](=O)[O-])c2)C(C(=O)OC)=C1C
187 to 189 | Nc1cccc(-c2ccc3nnn(Cc4ccc5ncccc5c4)c3n2)c1
173 to 175 | O=C(O)c1ccccc1-c1nnc(-c2ccccc2)o1
65 | CCCCCC1=CCC(c2cc(F)c(C(=O)O)c(F)c2)C=C1 (stereo not drawn)
88 to 93 | CCCCCCC(c1nccn1C)n1cnc2cc(-c3ccccc3-c3nn[nH]n3)ccc21 (stereo not drawn)
118 to 121 | CC(=O)O[C@H](CC(=O)c1ccccc1)C(=O)O
52 to 54 | CS(=O)(=O)Cc1ccc(C(=NN)c2ccc(Cl)cc2)cc1
136 to 141 | Cc1cc(Cc2cnc(NCCCCc3ncc(Br)cc3C)[nH]c2=O)cnc1CO
110 to 114 | CC(Cc1c[nH]c2ccccc12)(NC(=O)OC1C2CC3CC(C2)CC1C3)C(=O)NC(CNC(=O)CCC(=O)O)Cc1ccccc1 (stereo not drawn)

melting point [°C] | Compound
201 to 203 | Cc1ccc(-n2nc(-c3ccc(O)cc3)c3cccnc32)cc1
240 | CCCC(=O)Nc1n[nH]c2c(F)c(N3CCOCC3)c(Br)cc12
169 to 170 | CCOC(=O)c1cc(NCc2ccccc2)c(Nc2cccc(C)c2)c(S(N)(=O)=O)c1
251 to 255 | COC(=O)c1cccc2c3nc4ccccc4[nH]c-3nc12
73 to 74 | CCOP(=O)(Cc1ccc(N)c2ccccc12)OCC
159 to 160 | COc1ccc(Cl)cc1C(=O)NCCc1ccc([N+](=O)[O-])cc1
223 to 224 | CCCCCNc1cc(C(=O)O)cc(S(N)(=O)=O)c1Oc1ccccc1
145 | CCOC(=O)c1ccc(-c2ccc(-c3ccccc3)c(-c3cc4c(cc3O)C(C)(C)CCC4(C)C)c2)cc1
101 to 102 | CCOC(=O)c1ccccc1-n1c(=O)c2ccccc2n(CCCCBr)c1=O
145 to 147 | CCn1c(CC#N)ccc1C(=O)c1ccc(Cl)cc1
202 to 204 | COCc1nc2c(N)nc3ccccc3c2n1Cc1ccccc1
166 to 168 | O=C1c2ccccc2CN1CCN1CCC(c2noc3cc(F)ccc23)CC1
169 | CC(C)[C@@H](NS(=O)(=O)c1ccc(-c2ccsc2)cc1)C(=O)O
220 to 222 | O=C(CN1CCC(Cc2ccccc2)CC1)Nc1ccc2c(c1)NC(=O)CO2
170 to 172 | Brc1ccn2nc(N3CCCC3)nc2c1
184 to 185 | CC(C)(C)c1ccc2c(c1)C=C(C(=O)O)C(C(F)(F)F)S2 (stereo not drawn)
255 to 256 | CCc1cc(C(=O)c2ccccc2F)c(-n2c(C)nnc2CNC(=O)c2cc3ccccc3[nH]2)s1
163 to 164 | CCOC(=O)CCN1CCN(CC2CN(c3ccc(C(=N)NC(=O)c4ccccc4)cc3)C(=O)O2)CC1 (stereo not drawn)
282 to 285 | CC(C)NC1=NS(=O)(=O)c2cc(F)c(Cl)cc2N1
186 to 190 | Cc1ccc2c(O)cc(=O)oc2c1C
79 to 82 | COc1ccc(N2CCN(C(=O)NCCN(C)C)CC2)cc1

Compound | melting point [°C]
Cc1cc(C(N)=O)ncc1C(c1c(F)ccc(F)c1F)S(=O)(=O)CC1CC(F)(F)C1 (stereo not drawn) | 205 to 207
CN1Cc2c(-c3nc(CCl)cs3)ncn2-c2cccc(Cl)c2C1=O | 277 to 279
Cc1cc(C)c(C2C(=O)N3CCCCN3C2=O)c(C)c1 | 247 to 248
[N-]=[N+]=NCCCc1ccc(C(N)=O)s1 | 85 to 87
O=C(NCC1CC1)c1cc2nccnc2c(Cl)c1NC(=O)c1cc(C(F)(F)F)nn1-c1ncccc1Cl | 180 to 183
